Earlier results in patent EP2527351B1, “Lipophosphonoxins, method of their preparation and use” (priority 2011, dated 2012).

System: Mycobacterium tuberculosis strains
Details: multidrug-resistant strains, in vitro; cited from earlier work

**Q.** Which MIC does the source give for caprazamycins [CPZs] here?
**A.** Its MIC is 3.13 µg/mL.
